Experimental findings from ChEMBL document CHEMBL5550106, “Recent advances in the exploration of oxazolidinone scaffolds from compound development to antibacterial agents and other bioactivities” (Eur J Med Chem, 2024) are described below.

SMILES strings stand for the structures. ≈ marks a conversion by molar mass, not a printed value.

The subject of this assay is Mycobacterium tuberculosis. As to the kind of experiment: Antitubercular activity against Multi-drug resistant Mycobacterium tuberculosis assessed as inhibition of bacterial growth incubated for 14 days by microplate alamar blue assay. The assay is classed as functional. Particulars: 336 h, time 14 day. (Alamar Blue is a resazurin reagent that responds to reducing activity.)

As a reminder, the MIC90 is an inhibitory concentration at the 90% level, which refers to growth in some studies and to a panel of isolates in others. On to `CN1CCN(c2ccc(N3C[C@H](CO)OC3=O)cc2F)C=N1` [DELPAZOLID], for which the MIC90 was determined as 0.5 mg/L (≈ 1.62 µM).
